The values below come from patent US6716866B2, “Aryl-benzimidazole compounds having antiinfective activity” (GeneSoft Pharmaceuticals, Inc., priority 2001, dated 2004).

What all share (type): cell-based
One assay concerns E. faecium ATCC 51559. The assay is described as follows: MIC against drug-resistant bacteria, E. faecium ATCC 51559. As to conditions: organism A = E. faecium ATCC 51559, vancomycin resistant strain (VRE). As to the method: (§1) Compounds according to this invention were screened for their in vitro activities against selected species of bacteria and fungi. The minimal inhibition concentration (MIC) of these compounds was determined using the National Committee for Clinical Laboratory Standards (NCCLS) broth microdilution assay in microtiter plates, as set forth in: (1) the guidelines of the National Committee for Clinical Laboratory Standards (NCCLS) Document M7-A4 (NCCLS, 1997); (2) the guidelines of the National Committee for Clinical Laboratory Standards (NCCLS) Document M11-A4 (NCCLS, 1997); and (3) the guidelines and reference method of the National Committee for Clinical Laboratory Standards (NCCLS) Document M27-T (NCCLS, 1995). For antifungal essays, the method recommended in Murray, PR., 1995 Manual of Clinical Microbiology (ASM Press, Washington, D.C.), was employed.
(§2) Further, compounds (I) are effective against drug-resistant bacteria, as evidenced by the data in Table 2 below:
(§3) ATCC 27660 and ATCC 33591 are methycillin resistant strains of S. aureus (MRSA's). ATCC 51559 is a vancomycin resistant strain of E. faecium (VRE). ATCC 12228 is a methycillin resistant strain of S. epidermis (MRSE). ATCC 51422 is a penicillin resistant strain of S. pneumoniae.

Another assay has as its system S. aureus ATCC 27660. The assay is described as follows: MIC against drug-resistant bacteria, S. aureus ATCC 27660. As to conditions: organism B = S. aureus ATCC 27660, methycillin resistant strain (MRSA). As to the method:
as §1, §2, §3

A further assay has as its system S. aureus ATCC 33591. The assay is described as follows: MIC against drug-resistant bacteria, S. aureus ATCC 33591. As to conditions: organism C = S. aureus ATCC 33591, methycillin resistant strain (MRSA). As to the method: as §1, §2, §3
The subject of the next assay is S. epidermis ATCC 12228. The experiment in a line: MIC against drug-resistant bacteria, S. epidermis ATCC 12228. As to conditions: organism D = S. epidermis ATCC 12228, methycillin resistant strain (MRSE). As to the method: as §1, §2, §3
For the next assay, the system named is S. pneumoniae ATCC 51422. The experiment in a line: MIC against drug-resistant bacteria, S. pneumoniae ATCC 51422. As to conditions: organism E = S. pneumoniae ATCC 51422, penicillin resistant strain. On the procedure:
as §1, §2, §3

SMILES strings stand for the structures.

As for `Cn1cc(NC(=O)c2ccc(Cl)cc2F)cc1C(=O)Nc1cc(-c2nc3ccc(C(=O)NCCN4CCOCC4)cc3[nH]2)n(C)c1` [Compound I-13], the “Minimum Inhibitoty Concentration (MIC)” value in the assay on E. faecium ATCC 51559, in the assay on S. aureus ATCC 27660, in the assay with S. aureus ATCC 33591, in the assay on S. epidermis ATCC 12228 and with S. pneumoniae ATCC 51422 was “+++ (MIC ≦4)” in each case.

For `Cn1cc(NC(=O)c2ccc(Cl)cc2F)cc1C(=O)Nc1cc(-c2nc3ccc(C(=O)NCCN4CCSCC4)cc3[nH]2)n(C)c1` [Compound I-14], the “Minimum Inhibitoty Concentration (MIC)” value in the assay on E. faecium ATCC 51559, in the assay on S. aureus ATCC 27660, in the assay with S. aureus ATCC 33591, in the assay with S. epidermis ATCC 12228 and in the assay on S. pneumoniae ATCC 51422 was “+++ (MIC ≦4)” in each case.

With `Cn1cc(NC(=O)c2ccc(Cl)cc2F)cc1C(=O)Nc1cc(-c2nc3ccc(C(=O)NCCN4CCCCC4)cc3[nH]2)n(C)c1` [Compound I-15], the “Minimum Inhibitoty Concentration (MIC)” value in the assay on E. faecium ATCC 51559, with S. aureus ATCC 27660, with S. aureus ATCC 33591, in the assay with S. epidermis ATCC 12228 and with S. pneumoniae ATCC 51422 was “+++ (MIC ≦4)” in each case.

In the case of `CCOC(=O)c1ccc2nc(-c3cc(NC(=O)c4cc(NC(=O)c5ccc(F)cc5NCCN5CCOCC5)cn4C)cn3C)[nH]c2c1` [Compound I-16], the “Minimum Inhibitoty Concentration (MIC)” value with S. aureus ATCC 27660 was “+ (MIC from 12 to 32, inclusive)”.

In the case of `CCOC(=O)c1ccc2nc(-c3cc(NC(=O)c4cc(NC(=O)c5ccc(F)cc5NCCN5CCSCC5)cn4C)cn3C)[nH]c2c1` [Compound I-17], the “Minimum Inhibitoty Concentration (MIC)” value in the assay on S. aureus ATCC 27660 is recorded as “+++ (MIC ≦4)”.

With `CCOC(=O)c1ccc2nc(-c3cc(NC(=O)c4cc(NC(=O)c5ccc(F)cc5NCCN5CCCCC5)cn4C)cn3C)[nH]c2c1` [Compound I-18], the “Minimum Inhibitoty Concentration (MIC)” value with S. aureus ATCC 27660 is recorded as “+++ (MIC ≦4)”.

Take `Cn1cc(NC(=O)c2ccc(F)cc2F)cc1C(=O)Nc1cc(-c2nc3ccc(C(=O)NCCN4CCOCC4)cc3[nH]2)n(C)c1` [Compound I-19]: the “Minimum Inhibitoty Concentration (MIC)” value with E. faecium ATCC 51559, in the assay with S. aureus ATCC 27660, in the assay with S. aureus ATCC 33591, in the assay on S. epidermis ATCC 12228 and in the assay on S. pneumoniae ATCC 51422 was “+++ (MIC ≦4)” each time.

For the molecule `Cn1cc(NC(=O)c2ccc(F)cc2F)cc1C(=O)Nc1cc(-c2nc3ccc(C(=O)NCCN4CCSCC4)cc3[nH]2)n(C)c1` [Compound I-20], the “Minimum Inhibitoty Concentration (MIC)” value in the assay with E. faecium ATCC 51559, with S. aureus ATCC 27660, in the assay with S. aureus ATCC 33591, in the assay on S. epidermis ATCC 12228 and in the assay with S. pneumoniae ATCC 51422 was “+++ (MIC ≦4)” in each case.

In the case of `Cn1cc(NC(=O)c2ccc(F)cc2F)cc1C(=O)Nc1cc(-c2nc3ccc(C(=O)NCCN4CCCCC4)cc3[nH]2)n(C)c1` [Compound I-21], the “Minimum Inhibitoty Concentration (MIC)” value in the assay with E. faecium ATCC 51559, in the assay on S. aureus ATCC 27660, in the assay with S. aureus ATCC 33591, in the assay with S. epidermis ATCC 12228 and with S. pneumoniae ATCC 51422 was “+++ (MIC ≦4)” in each case.

For `Cn1cc(NC(=O)c2ccc3nc(-c4cc(NC(=O)c5cc6ccccc6cn5)cn4C)[nH]c3c2)cc1C(=O)NCCN1CCCCC1` [Compound I-22], the “Minimum Inhibitoty Concentration (MIC)” value in the assay on E. faecium ATCC 51559, with S. aureus ATCC 27660, in the assay with S. aureus ATCC 33591, in the assay on S. epidermis ATCC 12228 and in the assay with S. pneumoniae ATCC 51422 was “+++ (MIC ≦4)” throughout.

Consider `Cn1cc(NC(=O)c2sc3ccccc3c2Cl)cc1C(=O)Nc1cc(-c2nc3ccc(C(=O)NCCN4CCSCC4)cc3[nH]2)n(C)c1` [Compound I-23], for which the “Minimum Inhibitoty Concentration (MIC)” value was “+++ (MIC ≦4)” in the assay on E. faecium ATCC 51559; “+++ (MIC ≦4)” in the assay with S. aureus ATCC 27660; “++ (MIC between 4 and 12)” with S. aureus ATCC 33591; “+++ (MIC ≦4)” with S. epidermis ATCC 12228; “+++ (MIC ≦4)” in the assay with S. pneumoniae ATCC 51422.

`Cn1cc(NC(=O)c2sc3ccccc3c2Cl)cc1C(=O)Nc1cc(-c2nc3ccc(C(=O)NCCN4CCCCC4)cc3[nH]2)n(C)c1` [Compound I-24]: in the assay on S. aureus ATCC 27660, the “Minimum Inhibitoty Concentration (MIC)” value was “+++ (MIC ≦4)”.

Regarding `CCN(CC)CCNC(=O)c1ccc2nc(-c3cc(NC(=O)c4cc(NC(=O)c5sc6ccccc6c5Cl)cn4C)cn3C)[nH]c2c1` [Compound I-25], in the assay on S. aureus ATCC 27660, the “Minimum Inhibitoty Concentration (MIC)” value is listed as “+++ (MIC ≦4)”.

Regarding `C[C@@H]1CN(CCNC(=O)c2ccc3nc(-c4cc(NC(=O)c5cc(NC(=O)c6sc7ccccc7c6Cl)cn5C)cn4C)[nH]c3c2)C[C@H](C)O1` [Compound I-26], the “Minimum Inhibitoty Concentration (MIC)” value is recorded as “+++ (MIC ≦4)” in the assay on E. faecium ATCC 51559; “+++ (MIC ≦4)” in the assay on S. aureus ATCC 27660; “+ (MIC from 12 to 32, inclusive)” in the assay with S. aureus ATCC 33591; “+++ (MIC ≦4)” in the assay with S. epidermis ATCC 12228; “+++ (MIC ≦4)” with S. pneumoniae ATCC 51422.

For the molecule `CCN(CC)CCNC(=O)c1ccc2nc(-c3cc(NC(=O)c4cc(NC(=O)c5cc6ccccc6cn5)cn4C)cn3C)[nH]c2c1` [Compound I-27], the “Minimum Inhibitoty Concentration (MIC)” value in the assay on E. faecium ATCC 51559, in the assay on S. aureus ATCC 27660 and in the assay with S. epidermis ATCC 12228 was “+++ (MIC ≦4)” in each case.

In the case of `Cn1cc(NC(=O)c2ccc3nc(-c4cc(NC(=O)c5ccc(Cl)cc5F)cn4C)[nH]c3c2)cc1C(=O)NCCN1CCCCC1` [Compound I-28], the “Minimum Inhibitoty Concentration (MIC)” value with E. faecium ATCC 51559, in the assay on S. aureus ATCC 27660 and in the assay on S. epidermis ATCC 12228 was “+++ (MIC ≦4)” in each case.

Consider `C[C@@H]1CN(CCNC(=O)c2ccc3nc(-c4cc(NC(=O)c5cc(NC(=O)c6cc7ccccc7cn6)cn5C)cn4C)[nH]c3c2)C[C@H](C)O1` [Compound I-29], for which the “Minimum Inhibitoty Concentration (MIC)” value in the assay with E. faecium ATCC 51559, in the assay on S. aureus ATCC 27660, in the assay on S. aureus ATCC 33591, in the assay with S. epidermis ATCC 12228 and with S. pneumoniae ATCC 51422 was “+++ (MIC ≦4)” in each case.

With `Cn1cc(NC(=O)c2cc3ccccc3cn2)cc1C(=O)Nc1cc(-c2nc3ccc(C(=O)NCCN4CCSCC4)cc3[nH]2)n(C)c1` [Compound I-30], the “Minimum Inhibitoty Concentration (MIC)” value in the assay on E. faecium ATCC 51559, in the assay with S. aureus ATCC 27660 and with S. epidermis ATCC 12228 was “+++ (MIC ≦4)” in each case.

`Cn1cc(NC(=O)c2ccc3nc(-c4cc(NC(=O)c5cc6ccccc6cn5)cn4C)[nH]c3c2)cc1C(=O)NCCN1CCOCC1` [Compound I-31]: the “Minimum Inhibitoty Concentration (MIC)” value with E. faecium ATCC 51559, with S. aureus ATCC 27660, in the assay with S. aureus ATCC 33591, in the assay on S. epidermis ATCC 12228 and with S. pneumoniae ATCC 51422 was “+++ (MIC ≦4)” in each case.

In the case of `Cn1cc(NC(=O)c2cc3ccccc3cn2)cc1C(=O)Nc1cc(-c2nc3ccc(C(=O)NCCN4CCC(O)CC4)cc3[nH]2)n(C)c1` [Compound I-32], the “Minimum Inhibitoty Concentration (MIC)” value in the assay with E. faecium ATCC 51559, with S. aureus ATCC 27660, with S. aureus ATCC 33591, with S. epidermis ATCC 12228 and in the assay with S. pneumoniae ATCC 51422 was “+++ (MIC ≦4)” each time.

With `CN(C)CCCNC(=O)c1ccc2nc(-c3cc(NC(=O)c4cc(NC(=O)c5cc6ccccc6cn5)cn4C)cn3C)[nH]c2c1` [Compound I-33], the “Minimum Inhibitoty Concentration (MIC)” value with E. faecium ATCC 51559, with S. aureus ATCC 27660, in the assay with S. aureus ATCC 33591, with S. epidermis ATCC 12228 and in the assay on S. pneumoniae ATCC 51422 was “+++ (MIC ≦4)” in each case.

On to `COCn1cc(NC(=O)c2ccc3nc(-c4cc(NC(=O)c5sccc5Cl)cn4C)[nH]c3c2)cc1C(=O)NCCN1CCSCC1` [Compound I-34], for which the “Minimum Inhibitoty Concentration (MIC)” value in the assay on S. aureus ATCC 33591 and in the assay with S. epidermis ATCC 12228 was “+++ (MIC ≦4)” in each case.

On to `CCN(CC)CCCNC(=O)c1ccc2nc(-c3cc(NC(=O)c4cc(NC(=O)c5cc6ccccc6cn5)cn4C)cn3C)[nH]c2c1` [Compound I-37], for which the “Minimum Inhibitoty Concentration (MIC)” value in the assay on S. aureus ATCC 27660 and with S. aureus ATCC 33591 was “+++ (MIC ≦4)” each time.
